According to US9334278B2, “Pyrrolo[2,3-B]pyrazines as SYK inhibitors” (Hoffmann-La Roche Inc., priority 2012, dated 2016):
Read-outs that look alike come from different tables or passages of the source.

Legend:
[1] = target: recombinant human SYK360-635 (Spleen Tyrosine Kinase) (Homo sapiens (Human), UniProt P43405); assay: SYK kinase assay (33P filtration, IC50 of SYK inhibition)
Description: Determination of IC50 of Spleen Tyrosine Kinase (SYK) inhibition:
SYK kinase assay is a standard kinase assay adapted to a 96 well plate format. This assay is performed in 96-well format for IC50 determination with 8 samples which represented 10 half log dilutions and a 40 μL reaction volume. The assay measures the incorporation of radiolabeled ^33P γATP into an N-terminally biotinylated peptide substrate, derived from naturally occurring phosphoacceptor consensus sequence (Biotin-11aa DY*E). Phosphorylated products were detected upon termination of reactions with EDTA and the addition of Streptavidin coated beads.
BSA: Bovine Serum Albumin Fraction V, fatty acid free (Roche Diagnostics GmbH, Cat. No. 9100221) diluted to a final concentration of 0.1%
Assay Dilution Buffer (ADB): 50 mM HEPES, 0.1 mM EGTA, 0.1 mM Na Vanadate, 0.1 mM (3-glycerophosphate, 10 mM MgCl2, 1 mM DTT, 0.1% BSA, pH 7.5
Bead wash buffer: 10 g/L PBS (Phosphate buffered saline) with 2M NaCl+1% phosphoric acid.
DMSO and the mixture was incubated for 10 min at RT.
The kinase reaction was initiated by the addition of 10 μL 4× substrate cocktail containing the DYE peptide substrate [0 or 5 μM], ATP [20 μM] and ^33PγATP [2 μCi/r×n]. After incubation at 30° C. for 15 min, the reaction was terminated by the transfer of 25 μL of the reaction sample to a 96 well 0.65 μm Millipore MADVNOB membrane/plate containing 200 μL 5 mM EDTA and 20% Streptavidine coated beads in PBS.
The unbound radionucleotides were washed under vacuum with 3×250 μL 2M NaCl; 2×250 μL 2M NaCl+1% phosphoric acid; 1×250 μL H2O. After the last wash membrane/plates were transferred to an adaptor plate, heat dried for 15 min at 60° C., and 50 μL scintillation cocktail was added to each well and 4 h later the amount of radioactivity was counted in a top counter.

[2] = tested on: B cell CD69 up-regulation in human whole blood; assay: B Cell CD69 Up-Regulation Assay in Human Whole Blood; format: cell-based; conditions: anti-human IgM 50 μg/mL for 20 h, CD69hi CD20+ B cells
Description: B Cell CD69 Up-Regulation Assay in Human Whole Blood
Human Blood was collected from healthy volunteers into Vacutainers (BD Biosciences, San Jose, Calif.) containing sodium heparin. Test compound was suspended in DMSO and nine half-log serial dilutions were made. The concentration of […] in the assay was 0.5%. 100 μL whole blood was pre-incubated with compound for 30 min and then stimulated with goat F(ab′)2 anti-human IgM (50 μg/mL, Southern Biotech) for 20 h. At the end of the 20 hour incubation, samples were incubated with fluorochrome-conjugated antibodies, PE mouse anti-human CD20 and APC Mouse anti-human CD69 (BD Biosciences), for 30 minutes. Samples were then lysed with Lyse solution (BD) and washed with PBS containing 2% fetal bovine serum (FBS). Fluorescent signals were acquired on flow cytometer LSR II (BD) and data were analyzed by Flow Jo. The percentage of activated (CD69hi) B-cell lymphocytes (CD20+) were determined using un-stimulated (negative control) and stimulated (positive control) wells as reference guidelines. The percentage inhibition was calculated and an IC50 curve was constructed using GraphPad Prism software with sigmoidal curve fitting.

[3] = tested on: Human B cell lymphoma cell line Ramos; assay: Ramos Calcium Influx FLIPR Assay; format: cell-based; conditions: Ramos cells, anti-human IgM 10 μg/mL stimulation, read-out: RAMOS_IC50
Description: Ramos Calcium Influx FLIPR Assay
Human B cell lymphoma cell line Ramos was cultivated in RPMI-1640 with 10% Fetal Bovine Serum (Invitrogen). Cells were seeded into assay plate and loaded with calcium dye by adding 30 μl of dye loading buffer according to manufacturer's instruction (Beckton Dickinson Calcium Kit, Cat#80500). The cells were then treated with serial diluted compounds for 30 min before stimulation. Baseline fluorescence was recorded for about 20 seconds followed by stimulation with mouse anti-human IgM (10 μg/mL, clone M2E6, Antibody Solutions Inc.) for Ramos cells, and record of the maximal fluorescent counts in each well. Maximal counts divided by baseline counts, defined as fold change from baseline for each well, was used for IC50 calculation.

[4] = read-out: ENZYME_FILTRATION_IC50, SYK 0.5 nM, ATP 20 μM, 33P filtration

| Structure (SMILES) | IC50 [1, 4] [nM] | IC50 [2] [nM] | IC50 [3] [nM] | IC50 [1] [nM] |
| --- | --- | --- | --- | --- |
| Cc1ccc(Nc2cnc3[nH]cc(C(=O)NC(C)(C)C)c3n2)nc1 [Compound I-1, N-tert-butyl-2-(5-methylpyridin-2-ylamino)-5H-pyrrolo[2,3-b]pyrazine-7-carboxamide] | 8.5 | 627 | 122 |  |
| Cc1ccc(Nc2cnc3[nH]cc(C(=O)NC(C)(C)CO)c3n2)nc1 [Compound I-2, N-(1-hydroxy-2-methylpropan-2-yl)-2-(5-methylpyridin-2-ylamino)-5H-pyrrolo[2,3-b]pyrazine-7-carboxamide] | 27.4 | 535 | 245 |  |
| Cn1ccc(Nc2cnc3[nH]cc(C(=O)NC(C)(C)C)c3n2)n1 [Compound I-3, N-tert-butyl-2-(1-methyl-1H-pyrazol-3-ylamino)-5H-pyrrolo[2,3-b]pyrazine-7-carboxamide] | 21.1 | 204 | 146 |  |
| Cc1ccc(Nc2cnc3[nH]cc(C(=O)NC(C)C)c3n2)nc1 [Compound I-4, N-isopropyl-2-(5-methylpyridin-2-ylamino)-5H-pyrrolo[2,3-b]pyrazine-7-carboxamide] | 42.8 | 918 | 258 |  |
| Cn1cc(Nc2cnc3[nH]cc(C(=O)NC(C)(C)C)c3n2)cn1 [Compound I-5, N-tert-butyl-2-(1-methyl-1H-pyrazol-4-ylamino)-5H-pyrrolo[2,3-b]pyrazine-7-carboxamide] | 13.7 | 75.8 | 110 |  |
| Cc1ccc(Nc2cnc3[nH]cc(C(=O)NC(C)(C)C)c3n2)cn1 [Compound I-6, N-tert-butyl-2-(6-methylpyridin-3-ylamino)-5H-pyrrolo[2,3-b]pyrazine-7-carboxamide] | 17.1 | 430 | 115 |  |
| Cc1ncc(Nc2cnc3[nH]cc(C(=O)NC(C)(C)C)c3n2)cn1 [Compound I-7, N-tert-butyl-2-(2-methylpyrimidin-5-ylamino)-5H-pyrrolo[2,3-b]pyrazine-7-carboxamide] | 164 | 258 | 283 |  |
| Cc1cnc(Nc2cnc3[nH]cc(C(=O)NC(C)(C)C)c3n2)cn1 [Compound I-8, N-tert-butyl-2-(5-methylpyrazin-2-ylamino)-5H-pyrrolo[2,3-b]pyrazine-7-carboxamide] | 51.3 | 422 | 334 |  |
| Cc1cc(Nc2cnc3[nH]cc(C(=O)NC(C)(C)C)c3n2)[nH]n1 [Compound I-9, N-tert-butyl-2-(3-methyl-1H-pyrazol-5-ylamino)-5H-pyrrolo[2,3-b]pyrazine-7-carboxamide] | 15.5 | 343 | 93.1 |  |
| CC(C)(C)NC(=O)c1c[nH]c2ncc(Nc3cccnc3)nc12 [Compound I-10, N-tert-butyl-2-(pyridin-3-ylamino)-5H-pyrrolo[2,3-b]pyrazine-7-carboxamide] | 16.3 |  | 64.5 |  |
| Cc1ccc(Nc2cnc3[nH]cc(C(=O)NC(C)(C)C)c3n2)c(F)c1 [Compound I-11, N-tert-butyl-2-(2-fluoro-4-methylphenylamino)-5H-pyrrolo[2,3-b]pyrazine-7-carboxamide] | 10.9 |  | 1330 |  |
| Cc1ccc(Nc2cnc3[nH]cc(C(=O)NC(C)(C)C)c3n2)cc1 [Compound I-12, N-tert-butyl-2-(p-tolylamino)-5H-pyrrolo[2,3-b]pyrazine-7-carboxamide] | 3.2 | 2160 | 76.7 |  |
| CC(C)(C)NC(=O)c1c[nH]c2ncc(Nc3cccc(S(C)(=O)=O)c3)nc12 [Compound I-13, N-tert-butyl-2-(3-(methylsulfonyl)phenylamino)-5H-pyrrolo[2,3-b]pyrazine-7-carboxamide] | 12.8 | 190 | 69 |  |
| CCn1cc(Nc2cnc3[nH]cc(C(=O)NC(C)(C)C)c3n2)cn1 [Compound I-14, N-tert-butyl-2-(1-ethyl-1H-pyrazol-4-ylamino)-5H-pyrrolo[2,3-b]pyrazine-7-carboxamide] | 35.9 | 184 | 101 |  |
| CN(C)C(=O)c1ccccc1Nc1cnc2[nH]cc(C(=O)NC(C)(C)C)c2n1 [Compound I-15, N-tert-butyl-2-(2-(dimethylcarbamoyl)phenylamino)-5H-pyrrolo[2,3-b]pyrazine-7-carboxamide] | 934 | 6940 |  |  |
| Cc1c(Nc2cnc3[nH]cc(C(=O)NC(C)(C)C)c3n2)cnn1C [Compound I-16, N-tert-butyl-2-(1,5-dimethyl-1H-pyrazol-4-ylamino)-5H-pyrrolo[2,3-b]pyrazine-7-carboxamide] | 92.4 | 375 | 168 |  |
| Cn1cc(Nc2cnc3[nH]cc(C(=O)NC(C)(C)CO)c3n2)cn1 [Compound I-17, N-(1-hydroxy-2-methylpropan-2-yl)-2-(1-methyl-1H-pyrazol-4-ylamino)-5H-pyrrolo[2,3-b]pyrazine-7-carboxamide] | 49.9 | 193 | 207 |  |
| Cc1cc(Nc2cnc3[nH]cc(C(=O)NC(C)(C)C)c3n2)sn1 [Compound I-18, N-tert-butyl-2-(3-methylisothiazol-5-ylamino)-5H-pyrrolo[2,3-b]pyrazine-7-carboxamide] | 2 | 125 | 78.9 |  |
| Cc1ccc(Nc2cnc3[nH]cc(C(=O)NC(C)(C)C)c3n2)c(C)c1 [Compound I-19, N-tert-butyl-2-(2,4-dimethylphenylamino)-5H-pyrrolo[2,3-b]pyrazine-7-carboxamide] | 117 |  | 518 |  |
| CC(C)(C)NC(=O)c1c[nH]c2ncc(Nc3ccc(S(C)(=O)=O)cc3)nc12 [Compound I-20, N-tert-butyl-2-(4-(methylsulfonyl)phenylamino)-5H-pyrrolo[2,3-b]pyrazine-7-carboxamide] | 30 | 506 | 338 |  |
| CN(c1cccnc1)c1cnc2[nH]cc(C(=O)NC(C)(C)C)c2n1 [Compound I-21, N-tert-butyl-2-(methyl(pyridin-3-yl)amino)-5H-pyrrolo[2,3-b]pyrazine-7-carboxamide] | 1900 | > 50000 | 4800 |  |
| CC(C)(CO)NC(=O)c1c[nH]c2ncc(Nc3cccnc3)nc12 [Compound I-26, N-(1-hydroxy-2-methylpropan-2-yl)-2-(pyridin-3-ylamino)-5H-pyrrolo[2,3-b]pyrazine-7-carboxamide] | 5.6 |  | 216 |  |
| CC(C)(C)NC(=O)c1c[nH]c2ncc(Nc3ccnc(S(C)(=O)=O)c3)nc12 [Compound I-28, N-tert-butyl-2-(2-(methylsulfonyl)pyridin-4-ylamino)-5H-pyrrolo[2,3-b]pyrazine-7-carboxamide] | 121 |  | 806 |  |
| CC(C)(C)NC(=O)c1c[nH]c2ncc(Nc3cncc(S(C)(=O)=O)c3)nc12 [Compound I-29, N-tert-butyl-2-(5-(methylsulfonyl)pyridin-3-ylamino)-5H-pyrrolo[2,3-b]pyrazine-7-carboxamide] | 228 |  | 642 |  |
| Cc1nsc(Nc2cnc3[nH]cc(C(=O)NC(C)(C)C)c3n2)n1 [Compound I-31, N-tert-butyl-2-(3-methyl-1,2,4-thiadiazol-5-ylamino)-5H-pyrrolo[2,3-b]pyrazine-7-carboxamide] | 17.8 |  | 251 |  |
| Cc1nc2[nH]cc(C(=O)NC(C)(C)C)c2nc1Nc1cnn(C)c1 [Compound I-34, 3-Methyl-2-(1-methyl-1H-pyrazol-4-ylamino)-5H-pyrrolo[2,3-b]pyrazine-7-carboxylic acid tert-butylamide] |  | 5120 | 2170 |  |
| Cc1nc2[nH]cc(C(=O)NC(C)(C)C)c2nc1Nc1cccc(S(C)(=O)=O)c1 [Compound I-35, 2-(3-Methanesulfonyl-phenylamino)-3-methyl-5H-pyrrolo[2,3-b]pyrazine-7-carboxylic acid tert-butylamide] | 2940 |  |  |  |
| [2H]c1c([2H])c([2H])c(Nc2cnc3[nH]cc(C(=O)NC(C)(C)C)c3n2)c([2H])c1[2H] [Compound I-37, 2-Phenylamino(D5)-5H-pyrrolo[2,3-b]pyrazine-7-carboxylic acid tert-butylamide] |  |  | 37.7 | 4.8 |
| Cc1cc(Nc2nc3c(C(=O)NC(C)(C)C)c[nH]c3nc2Cl)sn1 [Compound I-38, N-tert-butyl-3-chloro-2-(3-methylisothiazol-5-ylamino)-5H-pyrrolo[2,3-b]pyrazine-7-carboxamide] | 640 |  | 14900 |  |
